From article PMC6630832, “3-Vinylazetidin-2-Ones: Synthesis, Antiproliferative and Tubulin Destabilizing Activity in MCF-7 and MDA-MB-231 Breast Cancer Cells” (Pharmaceuticals, 2019)
Where two headings read alike, the source gives them in different places.

What was measured:
[1] = test system: human MCF-7 breast cancer cells; assay: Cell viability (Alamar Blue) antiproliferative assay in MCF-7 cells; format: cell-based
Procedure: The human breast carcinoma cell line MCF-7, was purchased from the European Collection of Animal Cell Cultures (ECACC) and was cultured in Eagle’s minimum essential medium with 10% fetal bovine serum, 2 mM L-glutamine and 100 μg/mL penicillin/streptomycin. The medium was supplemented with 1% non-essential amino acids. The human breast carcinoma cell line MDA-MB-231 was purchased from the European Collection of Animal Cell Cultures (ECACC). MDA-MB-231 cells were maintained in Dulbecco’s modified Eagle’s medium (DMEM) supplemeted with 10% (v/v) fetal bovine serum, 2 mM L-glutamine and 100 μg/mL penicillin/streptomycin (complete medium). All media contained 100 U/mL penicillin and 100 μg/mL streptomycin. Triple negative breast cancer Hs578T cells and its invasive variant Hs578Ts(i)8 were obtained as a kind gift from Dr. Susan McDonnell, School of Chemical and Bioprocess Engineering, University College Dublin and were cultured in Dulbecco’s Modified Eagle’s Media (DMEM) with GlutaMAX^TM-I, with the same supplement as for MDA-MB-231 cells in the absence of non-essential amino acids. HEK-293T normal epithelial embryonic kidney cells were cultured in Dulbecco’s Modified Eagle’s Medium (DMEM) with GlutaMAX^TM-I in the absence of non-essential amino acids. K562 and HL-60 cells were originally obtained from the European Collection of Cell Cultures (Salisbury, UK).The K562 cells were derived from a patient in the blast crisis stage of CML HL-60 cells were derive from a patient with acute myeloid leukaemia. Cells were cultured in RPMI-1640 Glutamax medium supplemented with 10% FCS media, and 100 μg/mL penicillin/streptomycin. Cells were maintained at 37 °C in 5% CO2 in a humidified incubator. All cells were sub-cultured three times/week (adherent cells by trypsinisation).
Cells were seeded at a density of 5 × 10^3 cells/well (MCF-7), in triplicate in 96-well plates. After 24 h, cells were then treated with either medium alone, vehicle [1% ethanol (v/v)] or with serial dilutions of CA-4 or β-lactam analogue. Cell viability for MCF-7 and MDA-MB-231 was analysed using the Alamar Blue assay (Invitrogen Corp, Thermo Fisher Scientific, 168 Third Avenue, Waltham, MA, USA) according to the manufacturer’s instructions. After 72 h, Alamar Blue [10% (v/v)] was added to each well and plates were incubated for 3–5 h at 37 °C in the dark. Fluorescence was read using a 96-well fluorimeter with excitation at 530 nm and emission at 590 nm. Results were expressed as percentage viability relative to vehicle control (100%). Dose response curves were plotted and IC50 values (concentration of drug resulting in 50% reduction in cell survival) were obtained using the commercial software package Prism (GraphPad Software, Inc., 2365 Northside, Suite 560, San Diego, CA, USA). Experiments were performed in triplicate on at least three separate occasions.

[2] = test system: NCI 60 cell line panel; assay: NCI60 cell line screen (SRB assay), whole panel or sub-panels; format: cell-based
Source text: The results are summarized in Tables S3–S5, Supplementary Information.
Table S5: NCI 60 cell line mean screening results for selected compounds NCI Ref. Compound GI50 TGI LC50 […]
a GI50 and LC50 are the mean concentrations required to inhibit the growth and kill 50 % of the cells over the total NCI 60 cell line panel in the assay respectively. […]
over the total NCI 60 cell line panel.

[3] = test system: UO-31; assay: NCI60 screen (SRB), Renal cancer; format: cell-based; settings: Homo sapiens
[4] = test system: SK-MEL-28; assay: NCI60 screen (SRB), Melanoma; format: cell-based; settings: Homo sapiens
[5] = test system: CAKI-1; assay: NCI60 screen (SRB), Renal cancer; format: cell-based; settings: Homo sapiens
[6] = test system: PC-3; assay: NCI60 screen (SRB), Prostate cancer; format: cell-based; settings: Homo sapiens
[7] = test system: MDA-MB-231/ATCC; assay: NCI60 screen (SRB), Breast cancer; format: cell-based, human; settings: for IC50: value from NCI (footnote b)
[8] = test system: SK-MEL-2; assay: NCI60 screen (SRB), Melanoma; format: cell-based; settings: Homo sapiens
[9] = test system: A498; assay: NCI60 screen (SRB), Renal cancer; format: cell-based; settings: Homo sapiens
[10] = test system: HT29; assay: NCI60 screen (SRB), Colon Cancer; format: cell-based; settings: Homo sapiens, HT-29
[11] = test system: UACC-257; assay: NCI60 screen (SRB), Melanoma; format: cell-based; settings: Homo sapiens
[12] = test system: DU-145; assay: NCI60 screen (SRB), Prostate cancer; format: cell-based; settings: Homo sapiens
[13] = test system: SF295; assay: NCI60 screen (SRB), CNS Cancer; format: cell-based; settings: Homo sapiens, SF-295
[14] = test system: SNB-19; assay: NCI60 screen (SRB), CNS Cancer; format: cell-based; settings: Homo sapiens
[15] = test system: HCT-2998; assay: NCI60 screen (SRB), Colon Cancer; format: cell-based
[16] = test system: TK-10; assay: NCI60 screen (SRB), Renal cancer; format: cell-based; settings: Homo sapiens
[17] = test system: MOLT-4; assay: NCI60 screen (SRB), Leukemia; format: cell-based; settings: Homo sapiens
[18] = Homo sapiens, MCF7, Table S9, MCF-7 IC50 at which the toxicity was estimated, read-out: IC50, MCF-7
[19] = mean over the total NCI 60 cell line panel
[20] = mean over the total NCI 60 cell line panel, read-out: GI50 (mean)
[21] = mean over the total NCI 60 cell line panel, read-out: LC50 (mean)
[22] = over the full 60 cell line panel, read-out: mean GI50
[23] = MCF7, human MCF-7 breast cancer cells, 72 h, mean ± SEM, read-out: Antiproliferative Activity IC50
[24] = NCI60 Renal cancer cell line UO-31, read-out: GI50
[25] = NCI60 Melanoma cell line SK-MEL-28, read-out: GI50
[26] = Homo sapiens, MCF7, 72 h, human MCF-7 breast cancer cells, 72 h, mean ± SEM, read-out: Antiproliferative Activity IC50
[27] = NCI60 Renal cancer cell line CAKI-1, read-out: GI50
[28] = NCI60 Prostate cancer cell line PC-3, read-out: GI50
[29] = Homo sapiens, NCI60 Breast cancer cell line MDA-MB-231/ATCC, read-out: GI50
[30] = NCI60 Melanoma cell line SK-MEL-2, read-out: GI50
[31] = NCI60 Renal cancer cell line TK-10, read-out: GI50
[32] = NCI60 Renal cancer cell line A498, read-out: GI50
[33] = NCI60 Colon Cancer cell line HT29, read-out: GI50
[34] = NCI60 Melanoma cell line UACC-257, read-out: GI50
[35] = NCI60 Prostate cancer cell line DU-145, read-out: GI50
[36] = NCI60 CNS Cancer cell line SF295, read-out: GI50
[37] = NCI60 CNS Cancer cell line SNB-19, read-out: GI50
[38] = NCI60 Colon Cancer cell line HCT-2998, read-out: GI50
[39] = NCI60 Leukemia cell line MOLT-4, read-out: GI50

| Structure (SMILES) | TGI (mean) [2, 19] | GI50 [2, 20] | CC50 [2, 21] | GI50 ([2]; 60 cell, read-out: GI50 (mean)) | CC50 ([2]; 60 cell, read-out: LC50 (mean)) | GI50 ([2]; 60 cell, read-out: mean GI50) | GI50 [3, 24] | GI50 [4, 25] | IC50 [1, 26] | GI50 [5, 27] | GI50 [6, 28] | GI50 [7, 29] | GI50 [8, 30] | GI50 [16, 31] | GI50 [9, 32] | GI50 [10, 33] | GI50 [11, 34] | GI50 [12, 35] | GI50 [13, 36] | GI50 [14, 37] | also measured |
| --- | --- | --- | --- | --- | --- | --- | --- | --- | --- | --- | --- | --- | --- | --- | --- | --- | --- | --- | --- | --- | --- |
| COc1ccc(/C=C\c2cc(OC)c(OC)c(OC)c2)cc1O [CA-4, Combretastatin A-4, reference compound] | 10300 nM | 99.3 nM | 85500 nM |  |  |  |  |  |  |  |  |  |  |  |  |  |  |  |  |  | IC50 [1, 18]: 5.2 nM; GI50 [2, 22]: 99 nM |
| C=CC1C(=O)N(c2cc(OC)c(OC)c(OC)c2)C1c1ccc(OC)cc1 (centres unmarked) [Compound 7h, 4-(4-Methoxyphenyl)-1-(3,4,5-trimethoxyphenyl)-3-vinylazetidin-2-one] | 23440 nM |  |  | 52.5 nM | 75900 nM | 52 nM |  |  |  |  |  |  |  |  |  |  |  |  |  |  | GI50 ([3]; UO-31): 70.9 nM; GI50 ([4]; SK-MEL-28): 59.9 nM; IC50 [1, 23]: 20 ± 2.5 nM; CC50 ([2]; 60 cell, read-out: LC50): > 100000 nM; GI50 ([5]; CAKI-1): 392 nM; GI50 ([6]; PC-3): 37.4 nM; GI50 ([7]; Homo sapiens, MDA-MB-231): 31.7 nM; IC50 ([7]; Homo sapiens, MDA-MB-231, read-out: Antiproliferative Activity IC50, MDA-MB-231): 31 nM; IC50 ([7]; read-out: Antiproliferative Activity IC50, MDA-MB-231): 31.7 nM; GI50 ([8]; SK-MEL-2): 191 nM; GI50 ([9]; A498): 18.3 nM; GI50 [10]: 33.7 nM; GI50 ([11]; UACC-257): 42200 nM; GI50 ([12]; DU-145): 29.8 nM; GI50 [13]: 35.8 nM; GI50 ([14]; SNB-19): 54.2 nM; GI50 [15]: 35.3 nM |
| C=CC1C(=O)N(c2cc(OC)c(OC)c(OC)c2)C1c1ccc(OC)c(O)c1 (centres unmarked) [Compound 7s, 4-[3-Hydroxy-4-methoxyphenyl]-1-(3,4,5-trimethoxyphenyl)-3-vinylazetidin-2-one] | 5890 nM |  |  | 22.9 nM | 74100 nM | 23 nM | 11.1 nM | < 10 nM | 8 ± 0.71 nM | 40.2 nM | < 10 nM | < 10 nM | 31.4 nM | 10.2 nM | < 10 nM | 429 nM | > 100000 nM | < 10 nM | 271 nM | 40.5 nM | IC50 [1, 18]: 1.4 nM; GI50 ([2]; 60 cell): < 10 nM; CC50 ([2]; 60 cell, read-out: LC50): > 100000 nM; IC50 ([7]; Homo sapiens, MDA-MB-231, read-out: Antiproliferative Activity IC50): 10 nM; GI50 [15, 38]: 36.4 nM |
| C=CC1C(=O)N(c2cc(OC)c(OC)c(OC)c2)C1c1ccc(OC)c(N)c1 (centres unmarked) [Compound 7t, 4-(3-Amino-4-methoxyphenyl)-1-(3,4,5-trimethoxyphenyl)-3-vinylazetidin-2-one] | 50120 nM |  |  | 47.9 nM | 89100 nM | 48 nM |  |  |  |  |  |  |  |  |  |  |  |  |  |  | GI50 ([3]; UO-31): 64 nM; GI50 ([4]; SK-MEL-28): 18.1 nM; IC50 [1, 23]: 17 ± 1.8 nM; GI50 ([5]; CAKI-1): 32.9 nM; GI50 ([17]; MOLT-4): 40 nM; GI50 ([6]; PC-3): 41.5 nM; GI50 ([7]; Homo sapiens, MDA-MB-231): 41.5 nM; GI50 ([8]; SK-MEL-2): 65.6 nM; GI50 ([16]; TK-10): 26800 nM; GI50 ([9]; A498): 11 nM; GI50 [10]: 17.9 nM; GI50 ([11]; UACC-257): > 100000 nM; GI50 ([12]; DU-145): 36.5 nM; GI50 [13]: 21.3 nM; GI50 ([14]; SNB-19): 49 nM; GI50 [15]: 36.8 nM |
| C=CC1C(=O)N(c2cc(OC)c(OC)c(OC)c2)C1c1ccc(OC)c(OP(=O)(O)O)c1 (centres unmarked) [Compound 17b, 2-Methoxy-5-(1-(3,4,5-trimethoxyphenyl)-4-oxo-3-vinylazetidin-2-yl)phenyl dihydrogen phosphate] | 36300 nM | 72.4 nM | 87100 nM |  |  |  | 254 nM | 97.7 nM | 27 ± 2 nM | 71.7 nM | 53.6 nM | 48.6 nM | 85.8 nM | 11400 nM | 21.8 nM | 2780 nM | > 100000 nM | 59.6 nM | 29.1 nM | 459 nM | GI50 [17, 39]: 129 nM; IC50 ([7]; Homo sapiens, MDA-MB-231, MDA-MB-231, read-out: Antiproliferative Activity IC50): 49 nM; IC50 ([7]; MDA-MB-231, read-out: Antiproliferative Activity IC50): 48.6 nM; GI50 [15, 38]: 190 nM |
| CCC1C(=O)N(c2cc(OC)c(OC)c(OC)c2)C1c1ccc(OC)c(OP(=O)(O)O)c1 (centres unmarked) [Compound 17c, 5-(3-Ethyl-1-(3,4,5-trimethoxyphenyl)-4-oxoazetidin-2-yl)-2-methoxyphenyl dihydrogen phosphate] | 43650 nM | 138 nM | 85100 nM |  |  |  | 42.6 nM | 7460 nM | 21 ± 1.5 nM | 35.2 nM | 34.9 nM | 31 nM | 54.4 nM | 73.6 nM | 12.9 nM | 356 nM | > 100000 nM | 41.3 nM | 24.3 nM | 63.9 nM | GI50 [2, 22]: 73 nM; GI50 [17, 39]: 47.7 nM; GI50 [15, 38]: 40.9 nM |
